Source: US8835462B2, “Macrocyclic picolinamides as fungicides” (Dow AgroSciences LLC, priority 2012, dated 2014)
Where two headings read alike, the source gives them in different places.

Columns and labels:
Assay type in all cases: in vivo
[1] = system: Puccinia triticina; experiment: Wheat brown rust (PUCCRT) fungicidal activity on wheat seedlings
Procedure: Technical grades of materials were dissolved in acetone, which were then mixed with nine volumes of water containing 110 ppm Triton X-100. The fungicide solutions were applied onto wheat seedlings using an automated booth sprayer to run-off. All sprayed plants were allowed to air dry prior to further handling. Wheat plants (variety Yuma) were grown from seed in a greenhouse in 50% mineral soil/50% soil-less Metro mix until the first leaf was fully emerged, with 7-10 seedlings per pot. These plants were inoculated with an aqueous spore suspension of Septoria tritici either prior to or after fungicide treatments. After inoculation the plants were kept in 100% relative humidity (one day in a dark dew chamber followed by two to three days in a lighted dew chamber at 20° C.) to permit spores to germinate and infect the leaf. The plants were then transferred to a greenhouse set at 20° C. for disease to develop. When disease symptoms were fully expressed on the 1st leaves of untreated plants, infection levels were assessed on a scale of 0 to 100 percent disease severity. Percent disease control was calculated using the ratio of disease severity on treated plants relative to untreated plants. Evaluation of Fungicidal Activity: Wheat Brown Rust (Puccinia triticina; Synonym: Puccinia recondita f. sp. tritici; Bayer Code PUCCRT) Wheat plants (variety Yuma) were grown from seed in a greenhouse in 50% mineral soil/50% soil-less Metro mix until the first leaf was fully emerged, with 7-10 seedlings per pot. These plants were inoculated with an aqueous spore suspension of Puccinia triticina either prior to or after fungicide treatments. After inoculation the plants were kept in a dark dew room at 22° C. with 100% relative humidity overnight to permit spores to germinate and infect the leaf. The plants were then transferred to a greenhouse set at 24° C. for disease to develop. Fungicide formulation, application and disease assessment followed the procedures as described in the Example A.

[2] = system: Puccinia triticina; experiment: Fungicide mobility (dropline mobility test), wheat brown rust (PUCCRT); details: 1 ug/leaf, disease-free zone as percent of distance from marked line to leaf tip; for Dropline Mobility Test PUCCRT 1 DPM: 1 Day Protectant Mobility; for Dropline Mobility Test PUCCRT 3 DCM: 3 Day Curative Mobility
Procedure: Evaluation of Fungicide Mobility: Wheat Brown Rust (Puccinia Triticina; Synonym: Puccinia recondita f. sp. Tritici; Bayer Code PUCCRT):
“Yuma” wheat seedlings were used in the test. One mg of compound was dissolved in 9 μl of EC blank (emulsifiable concentrate) and 500 μl of acetone. Acetone was then evaporated overnight by leaving the vial open in a fume hood. Two milliliters of water containing 110 ppm Triton X-100 was added to each vial to prepare application solutions. A […] drop of formulated material was applied to a marked line on the adaxial surface 5 cm from the leaf tip of the primary leaves. The primary leaves were kept in a horizontal position. Each treatment had 6 replicates. Plants were inoculated with PUCCRT 1-day after (1DPM) or 3-day prior to (3DCM) compound applications. When rust was fully expressed on primary leaves on control plants, the zone of treated leaves that was disease-free in the acropetal direction was measured with a ruler and converted to percent of the distance from marked line to leaf tip.

[3] = system: Erysiphe cichoracearum; experiment: Powdery mildew of cucumber (ERYSCI) fungicidal activity; details: Golovinomyces cichoracearum, 24 h, 1 Day Protectant, read-out: Disease Control ERYSCI 1DP
Procedure: Technical grades of materials were dissolved in acetone, which were then mixed with nine volumes of water containing 110 ppm Triton X-100. The fungicide solutions were applied onto wheat seedlings using an automated booth sprayer to run-off. All sprayed plants were allowed to air dry prior to further handling. Wheat plants (variety Yuma) were grown from seed in a greenhouse in 50% mineral soil/50% soil-less Metro mix until the first leaf was fully emerged, with 7-10 seedlings per pot. These plants were inoculated with an aqueous spore suspension of Septoria tritici either prior to or after fungicide treatments. After inoculation the plants were kept in 100% relative humidity (one day in a dark dew chamber followed by two to three days in a lighted dew chamber at 20° C.) to permit spores to germinate and infect the leaf. The plants were then transferred to a greenhouse set at 20° C. for disease to develop. When disease symptoms were fully expressed on the 1st leaves of untreated plants, infection levels were assessed on a scale of 0 to 100 percent disease severity. Percent disease control was calculated using the ratio of disease severity on treated plants relative to untreated plants. Evaluation of Fungicidal Activity: Powdery Mildew of Cucumber (Erysiphe cichoracearum; Bayer Code […]) Cucumber seedlings (variety Bush Pickle) were grown in soil-less Metro mix, with one plant per pot, and used in the test when 12 to 14 days old. Plants were inoculated with a spore suspension 24 hr following fungicide treatments. After inoculation the plants remained in the greenhouse set at 20° C. until disease was fully expressed. Fungicide formulation, application and disease assessment on the sprayed leaves followed the procedures as described in the Example A.

[4] = system: Blumeria graminis f. sp. tritici; experiment: Wheat powdery mildew (ERYSGT) fungicidal activity; details: 24 h, 1 Day Protectant, read-out: Disease Control ERYSGT 1DP
Procedure: Technical grades of materials were dissolved in acetone, which were then mixed with nine volumes of water containing 110 ppm Triton X-100. The fungicide solutions were applied onto wheat seedlings using an automated booth sprayer to run-off. All sprayed plants were allowed to air dry prior to further handling. Wheat plants (variety Yuma) were grown from seed in a greenhouse in 50% mineral soil/50% soil-less Metro mix until the first leaf was fully emerged, with 7-10 seedlings per pot. These plants were inoculated with an aqueous spore suspension of Septoria tritici either prior to or after fungicide treatments. After inoculation the plants were kept in 100% relative humidity (one day in a dark dew chamber followed by two to three days in a lighted dew chamber at 20° C.) to permit spores to germinate and infect the leaf. The plants were then transferred to a greenhouse set at 20° C. for disease to develop. When disease symptoms were fully expressed on the 1st leaves of untreated plants, infection levels were assessed on a scale of 0 to 100 percent disease severity. Percent disease control was calculated using the ratio of disease severity on treated plants relative to untreated plants. Evaluation of Fungicidal Activity: Wheat Powdery Mildew (Blumeria Graminis f. sp. Tritici; Synonym: Erysiphe graminis f. sp. Tritici; Bayer Code […]) Wheat plants (variety Yuma) were grown from seed in a greenhouse in 50% mineral soil/50% soil-less Metro mix until the first leaf was fully emerged, with 7-10 seedlings per pot. These plants were inoculated by dusting with infected stock plants 24 hr after fungicide treatments. After inoculation the plants were kept in a greenhouse set at 20° C. for disease to develop. Fungicide formulation, application and disease assessment on the sprayed leaves followed the procedures as described in the Example A.

[5] = 24 h, 1 Day Protectant, read-out: Disease Control PUCCRT 1 DP
[6] = 72 h, 3 Day Curative, read-out: Disease Control PUCCRT 3 DC

COc1ccnc(C(=O)N[C@H]2COC[C@H](Cc3ccccc3)[C@@H](OCC(C)C)[C@H](C)OC2=O)c1O [Compound 2, N-((3S,7S,8R,9S)-7-benzyl-8-isobutoxy-9-methyl-2-oxo-1,5-dioxonan-3-yl)-3-hydroxy-4-methoxypicolinamide]
pest or weed control at 100 ppm [1, 5]: 80 to 100%
pest or weed control at 100 ppm [1, 6]: 80 to 100%
Dropline Mobility Test PUCCRT 1 DPM [2]: B (More than 0-Less than 80)
Dropline Mobility Test PUCCRT 3 DCM [2]: B (More than 0-Less than 80)

COc1ccnc(C(=O)N[C@H]2COC[C@H](Cc3ccccc3)[C@@H](OCC(C)C)[C@H](C)OC2=O)c1OCOC(=O)C(C)C [Compound 3]
pest or weed control at 100 ppm [1, 5]: 80 to 100%
pest or weed control at 100 ppm [1, 6]: 80 to 100%
pest or weed control at 100 ppm [3]: 80 to 100%
pest or weed control at 100 ppm [4]: 80 to 100%
Dropline Mobility Test PUCCRT 1 DPM [2]: B (More than 0-Less than 80)
Dropline Mobility Test PUCCRT 3 DCM [2]: B (More than 0-Less than 80)

COc1ccnc(C(=O)N[C@H]2COC[C@H](Cc3ccccc3)[C@@H](OCC(C)C)[C@H](C)OC2=O)c1OCOC(=O)C(C)(C)C [Compound 7]
pest or weed control at 100 ppm [1, 5]: 80 to 100%
pest or weed control at 100 ppm [1, 6]: 80 to 100%
pest or weed control at 100 ppm [3]: 80 to 100%
pest or weed control at 100 ppm [4]: 0 to 80%
Dropline Mobility Test PUCCRT 1 DPM [2]: B (More than 0-Less than 80)
Dropline Mobility Test PUCCRT 3 DCM [2]: B (More than 0-Less than 80)

COc1ccnc(C(=O)N[C@H]2COC[C@H](Cc3ccccc3)[C@@H](OCC(C)C)[C@H](C)OC2=O)c1OCOC(C)=O [Compound 8, (2-((3S,7S,8R,9S)-7-benzyl-8-isobutoxy-9-methyl-2-oxo-1,5-dioxonan-3-ylcarbamoyl)-4-methoxypyridin-3-yloxy)methyl acetate]
pest or weed control at 100 ppm [1, 5]: 80 to 100%
pest or weed control at 100 ppm [1, 6]: 80 to 100%
pest or weed control at 100 ppm [3]: 80 to 100%
pest or weed control at 100 ppm [4]: 80 to 100%
Dropline Mobility Test PUCCRT 1 DPM [2]: B (More than 0-Less than 80)
Dropline Mobility Test PUCCRT 3 DCM [2]: B (More than 0-Less than 80)

COc1ccnc(C(=O)N[C@H]2COC[C@H](Cc3ccccc3)[C@@H](OCC(C)C)[C@H](C)OC2=O)c1OC(C)=O [Compound 9, 2-(((3S,7S,8R,9S)-7-benzyl-8-isobutoxy-9-methyl-2-oxo-1,5-dioxonan-3-yl)carbamoyl)-4-methoxypyridin-3-yl acetate]
pest or weed control at 100 ppm [1, 5]: 80 to 100%
pest or weed control at 100 ppm [1, 6]: 80 to 100%
pest or weed control at 100 ppm [3]: 80 to 100%
pest or weed control at 100 ppm [4]: 80 to 100%
Dropline Mobility Test PUCCRT 1 DPM [2]: B (More than 0-Less than 80)
Dropline Mobility Test PUCCRT 3 DCM [2]: B (More than 0-Less than 80)

COc1ccnc(C(=O)N[C@H]2COC[C@H](Cc3ccccc3)[C@@H](OCC(C)C)[C@H](C)OC2=O)c1OC(=O)OC(C)C [Compound 10, 2-(((3S,7S,8R,9S)-7-benzyl-8-isobutoxy-9-methyl-2-oxo-1,5-dioxonan-3-yl)carbamoyl)-4-methoxypyridin-3-yl isopropyl carbonate]
pest or weed control at 100 ppm [1, 5]: 80 to 100%
pest or weed control at 100 ppm [1, 6]: 80 to 100%
pest or weed control at 100 ppm [3]: 80 to 100%
pest or weed control at 100 ppm [4]: 0 to 80%
Dropline Mobility Test PUCCRT 1 DPM [2]: B (More than 0-Less than 80)
Dropline Mobility Test PUCCRT 3 DCM [2]: B (More than 0-Less than 80)

COc1ccnc(C(=O)N[C@H]2COC[C@H](Cc3ccccc3)[C@@H](OCCC(=O)N(C)C)[C@H](C)OC2=O)c1OCOC(C)=O [Compound 15]
pest or weed control at 100 ppm [1, 5]: 0 to 80%
pest or weed control at 100 ppm [1, 6]: 0 to 80%
pest or weed control at 100 ppm [4]: 0 to 80%

COCCCO[C@@H]1[C@@H](Cc2ccccc2)COC[C@H](NC(=O)c2nccc(OC)c2OCOC(C)=O)C(=O)O[C@H]1C [Compound 16]
pest or weed control at 100 ppm [1, 5]: 80 to 100%
pest or weed control at 100 ppm [1, 6]: 80 to 100%
pest or weed control at 100 ppm [3]: 80 to 100%
pest or weed control at 100 ppm [4]: 80 to 100%

COc1ccnc(C(=O)N[C@H]2COC[C@H](Cc3ccccc3)[C@@H](OC(=O)c3ccccc3)[C@H](C)OC2=O)c1OCOC(C)=O [Compound 37]
pest or weed control at 100 ppm [1, 5]: 80 to 100%
pest or weed control at 100 ppm [1, 6]: 80 to 100%
pest or weed control at 100 ppm [4]: 0 to 80%
Dropline Mobility Test PUCCRT 1 DPM [2]: B (More than 0-Less than 80)

COc1ccnc(C(=O)N[C@H]2COC[C@H](Cc3ccccc3)[C@@H](Oc3ccccc3)[C@H](C)OC2=O)c1OCOC(C)=O [Compound 40]
pest or weed control at 100 ppm [1, 5]: 80 to 100%
pest or weed control at 100 ppm [1, 6]: 80 to 100%
pest or weed control at 100 ppm [4]: 0 to 80%
Dropline Mobility Test PUCCRT 1 DPM [2]: B (More than 0-Less than 80)
Dropline Mobility Test PUCCRT 3 DCM [2]: B (More than 0-Less than 80)

COc1ccnc(C(=O)N[C@H]2COC[C@H](Cc3ccccc3)[C@@H](OCC(F)F)[C@H](C)OC2=O)c1OCOC(C)=O [Compound 44]
pest or weed control at 100 ppm [1, 5]: 80 to 100%
pest or weed control at 100 ppm [1, 6]: 80 to 100%
pest or weed control at 100 ppm [3]: 0 to 80%
Dropline Mobility Test PUCCRT 1 DPM [2]: B (More than 0-Less than 80)
Dropline Mobility Test PUCCRT 3 DCM [2]: B (More than 0-Less than 80)

COc1ccnc(C(=O)N[C@H]2COC[C@H](Cc3ccccc3)[C@@H](OCCC(C)OC)[C@H](C)OC2=O)c1OCOC(C)=O (stereo partly drawn) [Compound 46]
pest or weed control at 100 ppm [1, 5]: 80 to 100%
pest or weed control at 100 ppm [1, 6]: 80 to 100%
pest or weed control at 100 ppm [3]: 80 to 100%
Dropline Mobility Test PUCCRT 1 DPM [2]: A (80-100)
Dropline Mobility Test PUCCRT 3 DCM [2]: A (80-100)

COc1ccnc(C(=O)N[C@H]2COC[C@H](Cc3ccccc3)[C@@H](OC3CCCC3)[C@H](C)OC2=O)c1OCOC(C)=O [Compound 106]
pest or weed control at 100 ppm [1, 5]: 80 to 100%
pest or weed control at 100 ppm [1, 6]: 80 to 100%
pest or weed control at 100 ppm [3]: 80 to 100%

COc1ccnc(C(=O)N[C@H]2COC[C@H](Cc3ccccc3)[C@@H](OC3CCCC3)[C@H](C)OC2=O)c1OC(C)=O [Compound 107]
pest or weed control at 100 ppm [1, 5]: 80 to 100%
pest or weed control at 100 ppm [1, 6]: 80 to 100%
pest or weed control at 100 ppm [3]: 0 to 80%

COc1ccnc(C(=O)N[C@H]2COC[C@H](Cc3ccccc3)[C@@H](OC3CCCC3)[C@H](C)OC2=O)c1OCOC(=O)C(C)C [Compound 108]
pest or weed control at 100 ppm [1, 5]: 80 to 100%
pest or weed control at 100 ppm [1, 6]: 80 to 100%
pest or weed control at 100 ppm [3]: 0 to 80%
